Experimental findings from publication PMC7226860 (ACS Omega, 2020) are described below.

The test system of test [1] is E. coli (ATCC: 3008). The test is described as follows: Agar well diffusion, inhibition zone. In kind it is cell-based, Escherichia coli. The conditions noted are these: for zone of inhibition at 15000 µg/mL: Escherichia coli, read-out: diameter of the inhibition zone. A general note: Agar diffusion results depend on both activity and mobility in agar.
The test system of test [2] is P. aeruginosa (ATCC: 27853). The test is described as follows: MIC, twofold serial dilution. In kind it is cell-based. The conditions noted are these: Pseudomonas aeruginosa, 24 h.
Test [3] concerns P. aeruginosa (ATCC: 27853). The test is described as follows: Agar well diffusion, inhibition zone. The format is cell-based, Pseudomonas aeruginosa. The conditions noted are these: for zone of inhibition at 15000 µg/mL: Pseudomonas aeruginosa, read-out: diameter of the inhibition zone; for diameter of the inhibition zone: P. aeruginosa (ATCC: 27853), Gram (−ve), agar well diffusion, 15 mg/mL, mean ± SD.

Test [4] concerns K. pneumonia (ATCC: 4415). The test is described as follows: Agar well diffusion, inhibition zone. The format is cell-based, Klebsiella pneumonia. The conditions noted are these: Klebsiella pneumoniae, read-out: diameter of the inhibition zone, K. pneumonia (ATCC: 4415), Gram (−ve), 15 mg/mL, mean ± SD.
The test system of test [5] is E. coli (ATCC: 3008). The test is described as follows: MIC, twofold serial dilution. The format is cell-based. The note with it: Escherichia coli, 24 h.
Test [6] deals with K. pneumonia (ATCC: 4415). The test is described as follows: MIC, twofold serial dilution. The format is cell-based. The conditions noted are these: Klebsiella pneumoniae, 24 h, read after 24 h.
Test [7] deals with C. albicans (ATCC: 10231). The test is described as follows: MIC, twofold serial dilution. The format is cell-based, Candida albicans.
For test [8], the system named is C. albicans (ATCC: 10231). The test is described as follows: Agar well diffusion, inhibition zone. The format is cell-based, Candida albicans. The conditions noted are these: for diameter of the inhibition zone: C. albicans (ATCC: 10231), fungi, 15 mg/mL, mean ± SD; for zone of inhibition at 15000 µg/mL: Candida albicans, read-out: diameter of the inhibition zone, C. albicans (ATCC: 10231), fungi, 15 mg/mL, mean ± SD.

The subject of test [9] is S. mutans (ATCC: 25175). The test is described as follows: MIC, twofold serial dilution. The conditions noted are these: Streptococcus mutans, 24 h. In kind it is cell-based.
The test system of test [10] is HFB4 human dermal fibroblast cell line. The test is described as follows: MTT cytotoxicity assay. The format is cell-based. The note with it: 48 h.
Test [11] has as its system S. aureus (ATCC: 6538). The test is described as follows: Agar well diffusion, inhibition zone. In kind it is cell-based, Staphylococcus aureus. The note with it: for zone of inhibition at 15000 µg/mL: Staphylococcus aureus, read-out: diameter of the inhibition zone.
Test [12] has as its system S. aureus (ATCC: 6538). The test is described as follows: MIC, twofold serial dilution. The format is cell-based. The conditions noted are these: Staphylococcus aureus, 24 h.
For test [13], the system named is S. mutans (ATCC: 25175). The test is described as follows: Agar well diffusion, inhibition zone. The format is cell-based, Streptococcus mutans. The conditions noted are these: Streptococcus mutans, read-out: diameter of the inhibition zone.
Another test deals with T1, human DHFR (Homo sapiens, UniProt P00374).
T1 sequence (P00374 1-187): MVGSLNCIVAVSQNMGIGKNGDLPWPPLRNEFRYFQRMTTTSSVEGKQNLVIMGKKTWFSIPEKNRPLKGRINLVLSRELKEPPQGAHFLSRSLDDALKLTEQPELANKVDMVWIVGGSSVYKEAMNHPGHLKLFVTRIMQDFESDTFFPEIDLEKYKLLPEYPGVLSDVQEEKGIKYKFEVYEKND
The test is described as follows: DHFR inhibitor screening kit. The format is biochemical. The note with it: for inhibition at 0.01 µg/mL / inhibition at 0.1 µg/mL / inhibition at 1 µg/mL / inhibition at 10 µg/mL: read-out: Inhibition of DHFR enzyme.

Molecules are shown by their SMILES. ≈ marks a conversion by molar mass, not a printed value.

In the case of `CNC(C)C1CCC(N)C(OC2C(N)CC(N)C(OC3OCC(C)(O)C(NC)C3O)C2O)O1` (centres unmarked) [Gentamicin, reference compound], the values for the zone of inhibition at 15000 µg/mL (in the test with E. coli (ATCC: 3008) [1]; in test [3]; in test [4]) were 25 ± 0.1 mm, 35 ± 0.1 mm and 32 ± 0.1 mm, respectively. For the same compound, the MIC in test [2] worked out at 125 µg/mL (≈ 262 µM); in the test on E. coli (ATCC: 3008) [5], 31.2 µg/mL (≈ 65.4 µM); in [6], 62.5 µg/mL (≈ 131 µM).

For the compound `C[C@@H]1[C@H](O)[C@@H](C)/C=C/C=C/CC/C=C/C=C/C=C/C=C/C(O[C@H]2O[C@H](C)[C@@H](O)[C@H](N)[C@@H]2O)CC2O[C@](O)(CC(O)C(O)CCC(O)CC(O)CC(O)CC(=O)O[C@H]1C)CC(O)C2C(=O)O` (some centres unmarked) [Nystatin, reference compound], in test [7] (C. albicans (ATCC: 10231), read after 24 h), the MIC was found to be 31.25 µg/mL (≈ 33.7 µM). Moreover, the “diameter of the inhibition zone” value in [8] is reported as 28.0 ± 0.1 mm.

With `Nc1ccc(S(=O)(=O)Nc2ncccn2)cc1` [SD, sulfadiazine, reference compound], the zone of inhibition at 15000 µg/mL with E. coli (ATCC: 3008) [1] turned out to be 19.8 ± 0.4 mm; in test [3] it was 24 ± 1.4 mm; in [4] it was 20.4 ± 0.9 mm; in the test on S. aureus (ATCC: 6538) [11], 31.2 ± 2.1 mm; in the test with S. mutans (ATCC: 25175) [13], 16.3 ± 1.1 mm. In addition, the MIC worked out at 250 µg/mL (≈ 999 µM) in test [2]; 125 µg/mL (≈ 499 µM) against S. mutans (ATCC: 25175) [9]; 500 µg/mL (≈ 2000 µM) in the test with S. aureus (ATCC: 6538) [12]; 250 µg/mL (≈ 999 µM) with E. coli (ATCC: 3008) [5]; 250 µg/mL (≈ 999 µM) in test [6]. Moreover, 243 ± 46.1 µg/mL (≈ 969 µM) corresponded to half-maximal inhibition in [10] (IC50). Moreover, the “diameter of the inhibition zone” value in [8] is “no activity”.

With `CSc1c(C#N)c(N)n(NS(=O)(=O)c2ccccc2)c(=O)c1-c1nc2ccccc2s1` [compound 5a, N-(6-Amino-3-(benzo[d]thiazol-2-yl)-5-cyano-4-(methylthio)-2-oxopyridin-1(2H)-yl)benzenesulfonamide], the zone of inhibition at 15000 µg/mL with E. coli (ATCC: 3008) [1] was 26 ± 0.5 mm; in test [4] it was 20.6 ± 1 mm; in the test with S. mutans (ATCC: 25175) [13], 17.6 ± 1.5 mm; in test [8], 21 to 28 mm. The “diameter of the inhibition zone” value in test [3] is “−”; with S. aureus (ATCC: 6538) [11] (S. aureus (ATCC: 6538), Gram (+ve), agar well diffusion, 15 mg/mL, mean ± SD), “−”; in [8], 21.0 ± 1.0 mm. The MIC with S. mutans (ATCC: 25175) [9] stood at 1000 µg/mL (≈ 2130 µM); in the test on E. coli (ATCC: 3008) [5] it was 62.5 µg/mL (≈ 133 µM); in test [6] it was 1000 µg/mL (≈ 2130 µM); in test [7] (Candida albicans, 24 h) it was 62.5 µg/mL (≈ 133 µM). In addition, the IC50 in test [10] was 167 ± 21.8 µg/mL (≈ 356 µM); against human DHFR, 554 nM. On human DHFR, the inhibition at 0.01 µg/mL was determined as 30%. Besides, on human DHFR, the inhibition at 0.1 µg/mL came out at 41.8%. Also, the inhibition at 1 µg/mL on human DHFR turned out to be 57.3%. The inhibition at 10 µg/mL on human DHFR was found to be 75.9%.

`CSc1c(C#N)c(N)n(NS(=O)(=O)c2ccc(C)cc2)c(=O)c1-c1nc2ccccc2s1` [compound 5b, N-(6-Amino-3-(benzo[d]thiazol-2-yl)-5-cyano-4-(methylthio)-2-oxopyridin-1(2H)-yl)-4-methylbenzenesulfonamide]: the zone of inhibition at 15000 µg/mL in the test with E. coli (ATCC: 3008) [1] amounted to 21.3 ± 3 mm; in test [3], 23.3 ± 0.5 mm; in [4], 25.6 ± 1.1 mm; with S. aureus (ATCC: 6538) [11], 30.3 ± 0.5 mm; with S. mutans (ATCC: 25175) [13] it was 18.6 ± 1 mm. The MIC in [2] came out at 1000 µg/mL (≈ 2070 µM); against S. mutans (ATCC: 25175) [9] it was 1000 µg/mL (≈ 2070 µM); in the test with S. aureus (ATCC: 6538) [12], 250 µg/mL (≈ 517 µM); against E. coli (ATCC: 3008) [5], 125 µg/mL (≈ 258 µM); in test [6], 1000 µg/mL (≈ 2070 µM). The IC50 was 146 ± 27 µg/mL (≈ 301 µM) in [10] and 620 nM against human DHFR. Besides, the inhibition at 0.01 µg/mL on human DHFR is 19.8%. Besides, the inhibition at 0.1 µg/mL on human DHFR was determined as 37.4%. Further, the inhibition at 1 µg/mL on human DHFR was found to be 65%. On human DHFR, the inhibition at 10 µg/mL amounted to 79.4%. Also, the “diameter of the inhibition zone” value in [8] is “−”.

Take `Nc1n[nH]c2c(-c3nc4ccccc4s3)c(=O)n(NS(=O)(=O)c3ccccc3)c(N)c12` [compound 11a, N-(3,4-Diamino-7-(benzo[d]thiazol-2-yl)-6-oxo-1H-pyrazolo[4,3-c]pyridin-5(6H)-yl)benzenesulfonamide]: the zone of inhibition at 15000 µg/mL with E. coli (ATCC: 3008) [1] is 26 ± 0.5 mm; in test [4], 15.2 ± 0.5 mm; in the test with S. aureus (ATCC: 6538) [11], 35.2 ± 1.5 mm; in the test with S. mutans (ATCC: 25175) [13], 22.3 ± 0.5 mm; in test [8] it was 21 to 28 mm. Also, the “diameter of the inhibition zone” value is reported as “−” in test [3] and 21.0 ± 1.7 mm in test [8]. For the same compound, the MIC in the test with S. mutans (ATCC: 25175) [9] was 1000 µg/mL (≈ 2210 µM); in the test with S. aureus (ATCC: 6538) [12], 31.2 µg/mL (≈ 68.9 µM); in the test with E. coli (ATCC: 3008) [5] it was 31.2 µg/mL (≈ 68.9 µM); in test [6], 125 µg/mL (≈ 276 µM); in test [7] (Candida albicans, 24 h) it was 125 µg/mL (≈ 276 µM). Moreover, the IC50 in test [10] is 234 ± 20.7 µg/mL (≈ 515 µM); on human DHFR it was 441 nM. The inhibition at 0.01 µg/mL on human DHFR was 29.6%. Further, the inhibition at 0.1 µg/mL on human DHFR was found to be 44.1%. In addition, the inhibition at 1 µg/mL at human DHFR is 67%. Further, the inhibition at 10 µg/mL at human DHFR turned out to be 71.8%.

For the compound `Cc1ccc(S(=O)(=O)Nn2c(N)c3c(N)n[nH]c3c(-c3nc4ccccc4s3)c2=O)cc1` [compound 11b, N-(3,4-Diamino-7-(benzo[d]thiazol-2-yl)-6-oxo-1H-pyrazolo[4,3-c]pyridin-5(6H)-yl)-4-methylbenzenesulfonamide], the “diameter of the inhibition zone” value was 26.0 ± 1.0 mm with E. coli (ATCC: 3008) [1] (E. coli (ATCC: 3008), Gram (−ve), agar well diffusion, 15 mg/mL, mean ± SD); “−” in test [3]; “no potency and −” in test [8]. The zone of inhibition at 15000 µg/mL turned out to be 26 ± 1 mm in the test with E. coli (ATCC: 3008) [1], 17.5 ± 0.5 mm in test [4], 25.2 ± 1 mm in the test with S. aureus (ATCC: 6538) [11] and 21 ± 1 mm in the test with S. mutans (ATCC: 25175) [13]. In addition, the MIC in the test on S. mutans (ATCC: 25175) [9] came out at 500 µg/mL (≈ 1070 µM); in the test on S. aureus (ATCC: 6538) [12], 500 µg/mL (≈ 1070 µM); in the test on E. coli (ATCC: 3008) [5] it was 31.2 µg/mL (≈ 66.8 µM); in [6], 125 µg/mL (≈ 267 µM). In addition, the IC50 in test [10] is 295 ± 19.1 µg/mL (≈ 631 µM); at human DHFR it was 11800 nM. The inhibition at 0.01 µg/mL on human DHFR was determined as 12.4%. The inhibition at 0.1 µg/mL at human DHFR worked out at 19.3%. In addition, at human DHFR, the inhibition at 1 µg/mL worked out at 31.2%. Also, the inhibition at 10 µg/mL on human DHFR worked out at 60.1%.

One may read the MIC as the least concentration at which growth counts as inhibited. By IC50 is commonly meant the concentration that gives 50% inhibition. Low readings indicate greater potency, high ones weaker potency. The inhibition is the change of the read-out against control, counted positive when it falls.
